The text below walks through data of article PMC6039436, “Radiobrominated benzimidazole-quinoline derivatives as Platelet-derived growth factor receptor beta (PDGFRβ) imaging probes” (Scientific Reports, 2018).

A word on the IC50: it is the concentration that inhibits the measured activity by half. A higher IC50 goes with a need for much substance.

For one series, the system named is RXF393 xenograft. On the set-up: method as in PMID 23522977. Particulars: RXF393 xenograft mice; cited from earlier work.
For series [1], the system named is PDGFRβ overexpressed TR-PCT1 cells. As to the kind of experiment: Cell viability assay (WST-8 / Cell Counting Kit-8). The series is classed as cell-based, rat. Particulars: 1–1000 nM, 72 h, 20 ng/mL PDGF-BB, compared with 1. As to the method: The binding affinity of 2 and 3 to the ATP-binding site in PDGFRβ was evaluated using PDGFRβ overexpressed TR-PCT1 cells. Cells were treated with 1–1000 nM of synthesized ligands, 1, 2, or 3.
Figure 4 Cell viability after exposure 1, 2, and 3 by WST-8 assay. Data were presented as mean ± SD for three samples. Significance was determined using a one-way ANOVA followed by Tukey’s post hoc test (^*p < 0.01, ^**p < 0.001).
The cell viability assay of brominated compounds, 2 and 3, was evaluated as described previously[24],[27]. Namely, TR-PCT1 cells were seeded on 96-well plates (5 × 10^3 cells/well) and cultured at 33 °C in DMEM medium with 20 ng/mL PDGF-BB and 2% FBS in a 5% CO2 incubator. Cells were treated with each compound for 72 h and cell viability was determined by the Cell Counting Kit-8.
On the technique in general: Tetrazolium assays rely on reduction of a dye to a coloured formazan, in cell work by metabolically active cells.

The target of another series is T1, PDGFRβ (BxPC3-luc cells) (Homo sapiens, UniProt P09619).
T1 construct: host or cells: BxPC3-luc cells
As to the kind of experiment: Competitive binding assay of [^125I]4 with BxPC3-luc cells. Particulars: displacement of [^125I]4, BxPC3-luc cells, 37 °C, 4 h. As for the experimental part: We investigated the competitive binding of [^125I]4 to BxPC3-luc cells with PDGFRβ ligand, 1, 2, and 3.
BxPC3-luc cells in medium containing 10% FBS and antibiotics were seeded on 24-well plates (50,000 cells/wells) and incubated for 24 h in a 5% CO2 incubator at 37 °C. Nine concentrations of displacing nonradiolabeled ligands (1, 2 and 3) (ranging from 1 pM to 1 mM) and [^125I]4 in medium without FBS were incubated at 37 °C for 4 h. After washing the cells twice using 250 µL of ice-cold PBS, the unbound radioligand was removed. The cells were dissolved using 250 µL of 1 M NaOH and wells were washed with 250 µL of 1 M NaOH. The bound radioactivity was determined using a gamma counter.
All data were statisticaly analyzed using GraphPad 5.0 software (La Jolla, CA, USA) and expressed as mean ± standard deviation (SD). Significance for in vitro blocking experiments was determined by a one-way analysis of variance (ANOVA) followed by Dunnett’s post hoc test compared to the control group. Significance in cell viability assays was determined by ANOVA followed by Tukey’s post hoc test. IC50 values for the binding assay were calculated by nonlinear regression. Significant differences in biodistribution experiments between [^77Br]2 and [^77Br]3 groups were determined using unpaired Student’s t-test. Significance for in vivo blocking studies between control and blocking groups were determined by unpaired Student’s t-test. Results were considered statistically significant at p < 0.05.

SMILES strings stand for the structures.

T1 sequence (P09619 33-1106): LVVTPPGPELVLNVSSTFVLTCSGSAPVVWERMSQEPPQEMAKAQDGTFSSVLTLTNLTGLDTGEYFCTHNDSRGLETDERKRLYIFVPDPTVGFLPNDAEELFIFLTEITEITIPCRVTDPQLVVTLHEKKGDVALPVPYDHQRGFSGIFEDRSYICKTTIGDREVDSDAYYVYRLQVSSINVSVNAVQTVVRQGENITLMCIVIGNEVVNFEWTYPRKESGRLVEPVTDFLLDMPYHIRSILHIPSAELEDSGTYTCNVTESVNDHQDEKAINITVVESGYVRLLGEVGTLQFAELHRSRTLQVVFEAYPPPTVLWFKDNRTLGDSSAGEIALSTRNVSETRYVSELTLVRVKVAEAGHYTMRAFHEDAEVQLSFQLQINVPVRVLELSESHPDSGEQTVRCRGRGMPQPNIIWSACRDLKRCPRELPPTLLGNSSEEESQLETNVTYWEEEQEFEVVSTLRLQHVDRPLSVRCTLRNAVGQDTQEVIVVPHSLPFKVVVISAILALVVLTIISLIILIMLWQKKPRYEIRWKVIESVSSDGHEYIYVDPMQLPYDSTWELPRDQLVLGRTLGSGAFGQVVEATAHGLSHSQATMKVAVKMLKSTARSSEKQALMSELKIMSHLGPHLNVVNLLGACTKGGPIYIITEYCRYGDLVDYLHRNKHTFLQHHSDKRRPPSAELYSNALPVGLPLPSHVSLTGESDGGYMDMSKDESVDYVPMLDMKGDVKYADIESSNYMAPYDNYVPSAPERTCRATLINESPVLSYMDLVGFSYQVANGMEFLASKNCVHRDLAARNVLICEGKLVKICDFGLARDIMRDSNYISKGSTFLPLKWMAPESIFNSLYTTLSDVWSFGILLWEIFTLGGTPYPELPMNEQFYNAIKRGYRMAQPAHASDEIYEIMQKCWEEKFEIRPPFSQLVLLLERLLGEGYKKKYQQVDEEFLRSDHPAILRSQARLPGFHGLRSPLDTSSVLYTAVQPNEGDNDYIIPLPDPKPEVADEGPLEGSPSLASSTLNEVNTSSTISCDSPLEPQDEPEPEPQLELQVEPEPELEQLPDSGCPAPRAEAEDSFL

For the molecule `CNC(=O)c1cc(Oc2ccc(NC(=O)Nc3ccc(Cl)c(C(F)(F)F)c3)cc2)ccn1` [^11C-labeled sorafenib, sorafenib], in the series on RXF393 xenograft, the Tumor uptake result was “about 2.52 ± 0.33 %ID/g”.

Turning to `COCCOc1ccc2c(c1)ncn2-c1ccc2c(Br)ccc(N3CCC(N)CC3)c2n1` [Compound 2, 1-{5-bromo-2-[5-(2-methoxyethoxy)-1H-benzo[d]imidazol-1-yl]quinolin-8-yl}piperidin-4-amine], the “Cell viability of TR-PCT1 cells” value in series [1] is “more effective in decreasing the viability of TR-PCT1 cells than 1”. The molecule also gave an IC50 at PDGFRβ (BxPC3-luc cells) of 56 ± 13 nM.
